Measured values taken from ChEMBL document CHEMBL3885861, “Open TG-GATES”.

Species on record: Rattus norvegicus
Test: Open TG-GATES - Regimen: Daily Repeat
Type: toxicity, organism-based, Sprague-Dawley
Parameters: regimen Daily Repeat, gender Male, age 6 weeks
Conditions: in vivo, po, route gavage; for APTT / Bas / Eos / Fbg / Hb / Ht / Lym / MCH / MCHC / MCV / Mono / Neu / PT / Plat / RBC / Ret / WBC: tissue Blood; for KIDNEY_L / KIDNEY_R / KIDNEY_TOTAL: tissue Kidney; for LIVER: tissue Liver; for A/G / ALP / ALT / AST / BUN / CRE / Ca / Cl / DBIL / GLC / IP / K / LDH / Na / PL / RALB / TBIL / TC / TG / TP / gamma-GTP: tissue Plasma
[1] = 300 mg/kg, 72 h, dose level Middle, time 3 day
[2] = 300 mg/kg, […], dose level Middle, time 7 day
[3] = 300 mg/kg, […], dose level Middle, time 14 day
[4] = 300 mg/kg, […], dose level Middle, time 28 day
[5] = 1000 mg/kg, 72 h, dose level High, time 3 day
[6] = 1000 mg/kg, […], dose level High, time 7 day
[7] = 1000 mg/kg, […], dose level High, time 14 day
[8] = 1000 mg/kg, […], dose level High, time 28 day

Cc1nnc2n1-c1ccc(Cl)cc1C(c1ccccc1Cl)=NC2 [TRIAZOLAM]
TERMINAL_BW [1]: 220.9 g
APTT [1]: 25.7 s
Bas [1]: 0.2%
Eos [1]: 1%
Fbg [1]: 302 mg/dL
Hb [1]: 13.8 g/dL
Ht [1]: 41.2%
Lym [1]: 78.6%
MCH [1]: 21.6 pg
MCHC [1]: 33.4%
MCV [1]: 64.4 fL
Mono [1]: 3.2%
Neu [1]: 16.2%
PT [1]: 12.8 s
Plat [1]: 108.5 x10_4/uL
RBC [1]: 639.2 x10_4/ul
Ret [1]: 6.8%
WBC [1]: 124.2 x10_2/uL
KIDNEY_L [1]: 1 g
KIDNEY_R [1]: 1 g
KIDNEY_TOTAL [1]: 1.9 g
LIVER [1]: 10.9 g
A/G [1]: 0.9
ALP [1]: 1522.4 IU/L
ALT [1]: 53.4 IU/L
AST [1]: 74.4 IU/L
BUN [1]: 14.6 mg/dL
CRE [1]: 0.2 mg/dL
Ca [1]: 11.1 mg/dL
Cl [1]: 104.2 meq/L
DBIL [1]: 0.014 mg/dL
GLC [1]: 176.8 mg/dL
IP [1]: 8.2 mg/dL
K [1]: 3.9 meq/L
LDH [1]: 104.8 IU/L
Na [1]: 141.6 meq/L
PL [1]: 155 mg/dL
RALB [1]: 2.6 g/dL
TBIL [1]: 0.048 mg/dL
TC [1]: 81 mg/dL
TG [1]: 82 mg/dL
TP [1]: 5.6 g/dL
gamma-GTP [1]: 1 IU/L
TERMINAL_BW [2]: 262.7 g
TERMINAL_BW [3]: 306.6 g
TERMINAL_BW [4]: 407.3 g
APTT [2]: 19.2 s
Bas [2]: 0%
Eos [2]: 1%
Fbg [2]: 262.6 mg/dL
Hb [2]: 13.6 g/dL
Ht [2]: 40.5%
Lym [2]: 76.6%
MCH [2]: 21.4 pg
MCHC [2]: 33.6%
MCV [2]: 63.6 fL
Mono [2]: 3.4%
Neu [2]: 18.6%
PT [2]: 12.8 s
Plat [2]: 124.7 x10_4/uL
RBC [2]: 637.8 x10_4/ul
Ret [2]: 7%
WBC [2]: 119.6 x10_2/uL
APTT [3]: 17.8 s
Bas [3]: 0.4%
Eos [3]: 1%
Fbg [3]: 245.8 mg/dL
Hb [3]: 14.1 g/dL
Ht [3]: 43.1%
Lym [3]: 76%
MCH [3]: 19.9 pg
MCHC [3]: 32.8%
MCV [3]: 60.8 fL
Mono [3]: 2.2%
Neu [3]: 19.4%
PT [3]: 13.5 s
Plat [3]: 113 x10_4/uL
RBC [3]: 710 x10_4/ul
Ret [3]: 4.9%
WBC [3]: 121.8 x10_2/uL
APTT [4]: 18.4 s
Bas [4]: 0%
Eos [4]: 1.2%
Fbg [4]: 262.4 mg/dL
Hb [4]: 15.3 g/dL
Ht [4]: 45.6%
Lym [4]: 82%
MCH [4]: 19.3 pg
MCHC [4]: 33.6%
MCV [4]: 57.5 fL
Mono [4]: 1.4%
Neu [4]: 14.2%
PT [4]: 13.6 s
Plat [4]: 106.2 x10_4/uL
RBC [4]: 793.4 x10_4/ul
Ret [4]: 2.3%
WBC [4]: 88.2 x10_2/uL
KIDNEY_L [2]: 1.1 g
KIDNEY_R [2]: 1.1 g
KIDNEY_TOTAL [2]: 2.2 g
KIDNEY_L [3]: 1.2 g
KIDNEY_R [3]: 1.2 g
KIDNEY_TOTAL [3]: 2.4 g
KIDNEY_L [4]: 1.4 g
KIDNEY_R [4]: 1.4 g
KIDNEY_TOTAL [4]: 2.8 g
LIVER [2]: 12.6 g
LIVER [3]: 13.4 g
LIVER [4]: 15.8 g
A/G [2]: 0.9
ALP [2]: 1686 IU/L
ALT [2]: 53 IU/L
AST [2]: 75 IU/L
BUN [2]: 19 mg/dL
CRE [2]: 0.2 mg/dL
Ca [2]: 11.1 mg/dL
Cl [2]: 104.8 meq/L
DBIL [2]: 0.012 mg/dL
GLC [2]: 187.2 mg/dL
IP [2]: 7.5 mg/dL
K [2]: 4.2 meq/L
LDH [2]: 84.8 IU/L
Na [2]: 141.4 meq/L
PL [2]: 162.8 mg/dL
RALB [2]: 2.6 g/dL
TBIL [2]: 0.038 mg/dL
TC [2]: 79 mg/dL
TG [2]: 103.4 mg/dL
TP [2]: 5.7 g/dL
gamma-GTP [2]: 1 IU/L
A/G [3]: 0.8
ALP [3]: 1485.8 IU/L
ALT [3]: 43 IU/L
AST [3]: 73 IU/L
BUN [3]: 15 mg/dL
CRE [3]: 0.2 mg/dL
Ca [3]: 10.8 mg/dL
Cl [3]: 104.6 meq/L
DBIL [3]: 0.008 mg/dL
GLC [3]: 182.2 mg/dL
IP [3]: 7.2 mg/dL
K [3]: 4.1 meq/L
LDH [3]: 87.4 IU/L
Na [3]: 142.8 meq/L
PL [3]: 140 mg/dL
RALB [3]: 2.6 g/dL
TBIL [3]: 0.036 mg/dL
TC [3]: 67.2 mg/dL
TG [3]: 105.4 mg/dL
TP [3]: 5.7 g/dL
gamma-GTP [3]: 1.2 IU/L
A/G [4]: 0.8
ALP [4]: 1211.8 IU/L
ALT [4]: 36.4 IU/L
AST [4]: 67.8 IU/L
BUN [4]: 16.8 mg/dL
CRE [4]: 0.3 mg/dL
Ca [4]: 10.7 mg/dL
Cl [4]: 105 meq/L
DBIL [4]: 0.012 mg/dL
GLC [4]: 186.4 mg/dL
IP [4]: 6.2 mg/dL
K [4]: 4.1 meq/L
LDH [4]: 82.2 IU/L
Na [4]: 142 meq/L
PL [4]: 145.8 mg/dL
RALB [4]: 2.7 g/dL
TBIL [4]: 0.058 mg/dL
TC [4]: 70.6 mg/dL
TG [4]: 110.8 mg/dL
TP [4]: 6.2 g/dL
gamma-GTP [4]: 1 IU/L
TERMINAL_BW [5]: 221.7 g
APTT [5]: 18.3 s
Bas [5]: 0.2%
Eos [5]: 1%
Fbg [5]: 278.6 mg/dL
Hb [5]: 13.8 g/dL
Ht [5]: 41.1%
Lym [5]: 78.2%
MCH [5]: 21.3 pg
MCHC [5]: 33.6%
MCV [5]: 63.4 fL
Mono [5]: 3.6%
Neu [5]: 16%
PT [5]: 13 s
Plat [5]: 124.4 x10_4/uL
RBC [5]: 650.2 x10_4/ul
Ret [5]: 6.4%
WBC [5]: 105.8 x10_2/uL
KIDNEY_L [5]: 1 g
KIDNEY_R [5]: 1 g
KIDNEY_TOTAL [5]: 1.9 g
LIVER [5]: 10.9 g
A/G [5]: 0.9
ALP [5]: 1527.4 IU/L
ALT [5]: 56 IU/L
AST [5]: 67.4 IU/L
BUN [5]: 14.4 mg/dL
CRE [5]: 0.2 mg/dL
Ca [5]: 11.5 mg/dL
Cl [5]: 102.8 meq/L
DBIL [5]: 0.016 mg/dL
GLC [5]: 167 mg/dL
IP [5]: 9.1 mg/dL
K [5]: 4.2 meq/L
LDH [5]: 98.4 IU/L
Na [5]: 141.6 meq/L
PL [5]: 157 mg/dL
RALB [5]: 2.6 g/dL
TBIL [5]: 0.048 mg/dL
TC [5]: 81.2 mg/dL
TG [5]: 84.2 mg/dL
TP [5]: 5.6 g/dL
gamma-GTP [5]: 1 IU/L
TERMINAL_BW [6]: 254.6 g
TERMINAL_BW [7]: 312.6 g
TERMINAL_BW [8]: 383.1 g
APTT [6]: 17.8 s
Bas [6]: 0%
Eos [6]: 1%
Fbg [6]: 282.6 mg/dL
Hb [6]: 13.7 g/dL
Ht [6]: 40.7%
Lym [6]: 74%
MCH [6]: 20.9 pg
MCHC [6]: 33.6%
MCV [6]: 62.1 fL
Mono [6]: 2.6%
Neu [6]: 21.6%
PT [6]: 12.8 s
Plat [6]: 129.1 x10_4/uL
RBC [6]: 656.2 x10_4/ul
Ret [6]: 5.5%
WBC [6]: 113.3 x10_2/uL
APTT [7]: 18.3 s
Bas [7]: 0.4%
Eos [7]: 1%
Fbg [7]: 249.6 mg/dL
Hb [7]: 14.2 g/dL
Ht [7]: 43.5%
Lym [7]: 78.6%
MCH [7]: 20 pg
MCHC [7]: 32.6%
MCV [7]: 61.2 fL
Mono [7]: 2.6%
Neu [7]: 16.8%
PT [7]: 13.3 s
Plat [7]: 123.4 x10_4/uL
RBC [7]: 711.4 x10_4/ul
Ret [7]: 5.3%
WBC [7]: 135.4 x10_2/uL
APTT [8]: 18.3 s
Bas [8]: 0.2%
Eos [8]: 1.4%
Fbg [8]: 273 mg/dL
Hb [8]: 15.3 g/dL
Ht [8]: 45.2%
Lym [8]: 76.2%
MCH [8]: 19.7 pg
MCHC [8]: 33.9%
MCV [8]: 58.2 fL
Mono [8]: 2.2%
Neu [8]: 18.4%
PT [8]: 13.2 s
Plat [8]: 112.9 x10_4/uL
RBC [8]: 776.4 x10_4/ul
Ret [8]: 2.4%
WBC [8]: 103.3 x10_2/uL
KIDNEY_L [6]: 1.1 g
KIDNEY_R [6]: 1.1 g
KIDNEY_TOTAL [6]: 2.3 g
KIDNEY_L [7]: 1.3 g
KIDNEY_R [7]: 1.3 g
KIDNEY_TOTAL [7]: 2.5 g
KIDNEY_L [8]: 1.4 g
KIDNEY_R [8]: 1.4 g
KIDNEY_TOTAL [8]: 2.8 g
LIVER [6]: 12.4 g
LIVER [7]: 14.2 g
LIVER [8]: 15.2 g
A/G [6]: 0.9
ALP [6]: 1848.4 IU/L
ALT [6]: 47.2 IU/L
AST [6]: 67.2 IU/L
BUN [6]: 15.8 mg/dL
CRE [6]: 0.2 mg/dL
Ca [6]: 11.2 mg/dL
Cl [6]: 105 meq/L
DBIL [6]: 0.014 mg/dL
GLC [6]: 176.6 mg/dL
IP [6]: 7.4 mg/dL
K [6]: 4.7 meq/L
LDH [6]: 86.2 IU/L
Na [6]: 142 meq/L
PL [6]: 160.8 mg/dL
RALB [6]: 2.7 g/dL
TBIL [6]: 0.032 mg/dL
TC [6]: 78.6 mg/dL
TG [6]: 108.2 mg/dL
TP [6]: 5.7 g/dL
gamma-GTP [6]: 1 IU/L
A/G [7]: 0.9
ALP [7]: 1576.6 IU/L
ALT [7]: 48 IU/L
AST [7]: 71.6 IU/L
BUN [7]: 17.8 mg/dL
CRE [7]: 0.2 mg/dL
Ca [7]: 10.8 mg/dL
Cl [7]: 103.6 meq/L
DBIL [7]: 0.01 mg/dL
GLC [7]: 188.4 mg/dL
IP [7]: 7.7 mg/dL
K [7]: 4.1 meq/L
LDH [7]: 112.2 IU/L
Na [7]: 141.8 meq/L
PL [7]: 157.6 mg/dL
RALB [7]: 2.6 g/dL
TBIL [7]: 0.036 mg/dL
TC [7]: 74.8 mg/dL
TG [7]: 127.4 mg/dL
TP [7]: 5.7 g/dL
gamma-GTP [7]: 1 IU/L
A/G [8]: 0.8
ALP [8]: 950 IU/L
ALT [8]: 41.2 IU/L
AST [8]: 68.8 IU/L
BUN [8]: 15.4 mg/dL
CRE [8]: 0.2 mg/dL
Ca [8]: 10.5 mg/dL
Cl [8]: 105.2 meq/L
DBIL [8]: 0.002 mg/dL
GLC [8]: 181 mg/dL
IP [8]: 6 mg/dL
K [8]: 4 meq/L
LDH [8]: 75 IU/L
Na [8]: 142.2 meq/L
PL [8]: 159.8 mg/dL
RALB [8]: 2.8 g/dL
TBIL [8]: 0.046 mg/dL
TC [8]: 79.8 mg/dL
TG [8]: 92 mg/dL
TP [8]: 6.1 g/dL
gamma-GTP [8]: 1.2 IU/L
